Measurements published in ChEMBL document CHEMBL3871267, “Design and synthesis of 1,2,3-triazole-containing N-acyl zanamivir analogs as potent neuraminidase inhibitors” (Eur J Med Chem, 2016).

Columns and labels:
[1] = target: Neuraminidase (Influenza A virus (strain A/Wilson-Smith/1933 H1N1) (Influenza A virus(strain A/WS/1933 H1N1)), UniProt P03470); experiment: Competitive inhibition of MDCK infected Influenza A virus A/WSN/33(H1N1) neuraminidase using MU-NANA as substrate preincubated for 30 mins followed by substrate addition measured after 1 hr by spectrofluorometric method; assay type: cell-based, Influenza A virus (A/WSN/1933(H1N1))
Chain of Neuraminidase (Influenza A virus (strain A/Wilson-Smith/1933 H1N1) (Influenza A virus(strain A/WS/1933 H1N1)), UniProt P03470) (P03470 whole entry): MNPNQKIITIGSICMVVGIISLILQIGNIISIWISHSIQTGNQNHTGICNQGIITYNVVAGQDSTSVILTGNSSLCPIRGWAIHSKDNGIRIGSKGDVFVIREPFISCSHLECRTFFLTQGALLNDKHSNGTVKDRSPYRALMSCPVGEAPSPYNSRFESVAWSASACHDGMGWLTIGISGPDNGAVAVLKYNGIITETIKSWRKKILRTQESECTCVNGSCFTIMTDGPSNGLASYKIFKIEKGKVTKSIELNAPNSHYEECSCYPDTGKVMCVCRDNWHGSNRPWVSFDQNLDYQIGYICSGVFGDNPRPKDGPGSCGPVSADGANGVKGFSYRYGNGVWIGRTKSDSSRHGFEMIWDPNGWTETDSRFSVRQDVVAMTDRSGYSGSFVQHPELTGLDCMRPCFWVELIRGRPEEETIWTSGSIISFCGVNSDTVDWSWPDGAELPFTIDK

[2] = Competitive inhibition of MDCK infected Influenza A virus A/Taiwan/3446/2002(H3N2) neuraminidase using MU-NANA as substrate preincubated for 30 mins followed by substrate addition measured after 1 hr by spectrofluorometric method
[3] = target: Neuraminidase (Influenza A virus (strain A/Wilson-Smith/1933 H1N1) (Influenza A virus(strain A/WS/1933 H1N1)), UniProt P03470); experiment: Inhibition of MDCK infected Influenza A virus A/WSN/33(H1N1) neuraminidase using MU-NANA as substrate preincubated for 30 mins followed by substrate addition measured after 1 hr by spectrofluorometric method; assay type: cell-based, Influenza A virus (A/WSN/1933(H1N1))
[4] = Inhibition of MDCK infected Influenza A virus A/Taiwan/3446/2002(H3N2) neuraminidase using MU-NANA as substrate preincubated for 30 mins followed by substrate addition measured after 1 hr by spectrofluorometric method; assay type: cell-based

Row | Structure (SMILES) | IC50 [1] | IC50 [2] | IC50 [3] | IC50 [4]
1 | CC(=O)N[C@H]1C([C@H](O)[C@H](O)CO)OC(C(=O)O)=C[C@@H]1NC(=N)NC(=O)CCn1cc(-c2ccccc2)nn1 (stereo partly drawn) | 146 nM | 135 nM | – | –
2 | CC(=O)N[C@H]1C([C@H](O)[C@H](O)CO)OC(C(=O)O)=C[C@@H]1NC(=N)NC(=O)CCCCn1cc(-c2ccccc2)nn1 (stereo partly drawn) | 169 nM | 110 nM | – | –
3 | COc1ccc2cc(-c3cn(CC(=O)NC(=N)N[C@H]4C=C(C(=O)O)O[C@@H]([C@H](O)[C@H](O)CO)[C@@H]4NC(C)=O)nn3)ccc2c1 | – | – | 31 nM | 28 nM
4 | CC(=O)N[C@H]1C([C@H](O)[C@H](O)CO)OC(C(=O)O)=C[C@@H]1NC(=N)NC(=O)Cn1cc(-c2ccccc2)nn1 (stereo partly drawn) | 9.9 nM | 8 nM | – | –
5 | CC(=O)N[C@H]1[C@H]([C@H](O)[C@H](O)CO)OC(C(=O)O)=C[C@@H]1NC(=N)NC(=O)Cn1cc(-c2ccccc2N)nn1 | – | – | 12 nM | 13 nM
6 | CC(=O)N[C@H]1[C@H]([C@H](O)[C@H](O)CO)OC(C(=O)O)=C[C@@H]1NC(=N)NC(=O)Cn1cc(-c2ccc(Cl)cc2)nn1 | – | – | 15 nM | 14 nM
7 | COc1ccccc1-c1cn(CC(=O)NC(=N)N[C@H]2C=C(C(=O)O)O[C@@H]([C@H](O)[C@H](O)CO)[C@@H]2NC(C)=O)nn1 | – | – | 8 nM | 10 nM
8 | CC(=O)N[C@H]1C([C@H](O)[C@H](O)CO)OC(C(=O)O)=C[C@@H]1NC(=N)NC(=O)CCCn1cc(-c2ccccc2)nn1 (stereo partly drawn) | 238 nM | 228 nM | – | –
9 | CC(=O)N[C@H]1[C@H]([C@H](O)[C@H](O)CO)OC(C(=O)O)=C[C@@H]1NC(=N)NC(=O)Cn1cc(-c2ccc(N)cc2)nn1 | – | – | 12 nM | 13 nM
10 | CCOC(=O)c1cccc(-c2cn(CC(=O)NC(=N)N[C@H]3C=C(C(=O)O)O[C@@H]([C@H](O)[C@H](O)CO)[C@@H]3NC(C)=O)nn2)c1 | – | – | 13 nM | 19 nM
11 | CC(=O)N[C@H]1[C@H]([C@H](O)[C@H](O)CO)OC(C(=O)O)=C[C@@H]1NC(=N)NC(=O)Cn1cc(-c2ccc(F)cc2)nn1 | – | – | 29 nM | 27 nM
12 | CC(=O)N[C@H]1[C@H]([C@H](O)[C@H](O)CO)OC(C(=O)O)=C[C@@H]1NC(=N)NC(=O)CSc1ccc2ccccc2c1 | – | – | 20 nM | 25 nM
13 | CC(=O)N[C@H]1[C@H]([C@H](O)[C@H](O)CO)OC(C(=O)O)=C[C@@H]1NC(=N)NC(=O)Cn1cc(C2=CCCCC2)nn1 | – | – | 15 nM | 17 nM
14 | CC(=O)N[C@H]1[C@H]([C@H](O)[C@H](O)CO)OC(C(=O)O)=C[C@@H]1NC(=N)NC(=O)Cn1cc(-c2cccc(F)c2)nn1 | – | – | 14 nM | 17 nM
15 | CC(=O)N[C@H]1[C@H]([C@H](O)[C@H](O)CO)OC(C(=O)O)=C[C@@H]1NC(=N)NC(=O)Cn1cc(-c2ccc(C)cc2)nn1 | – | – | 14 nM | 17 nM
16 | COc1ccc(-c2cn(CC(=O)NC(=N)N[C@H]3C=C(C(=O)O)O[C@@H]([C@H](O)[C@H](O)CO)[C@@H]3NC(C)=O)nn2)cc1 | – | – | 12 nM | 17 nM
17 | CC(=O)N[C@H]1[C@H]([C@H](O)[C@H](O)CO)OC(C(=O)O)=C[C@@H]1NC(=N)NC(=O)Cn1cc(C2CCCCC2)nn1 | – | – | 2.3 nM | 2.9 nM
18 | CC(=O)N[C@H]1[C@H]([C@H](O)[C@H](O)CO)OC(C(=O)O)=C[C@@H]1NC(=N)NC(=O)Cn1cc(-c2cccc(N)c2)nn1 | – | – | 10 nM | 11 nM
19 | CC(=O)N[C@H]1[C@H]([C@H](O)[C@H](O)CO)OC(C(=O)O)=C[C@@H]1NC(=N)NC(=O)Cn1cc(-c2cccc(Cl)c2)nn1 | – | – | 9 nM | 8 nM
